Activity calls are given as the source filed them. No cut-off for these calls is given here.
How the values were obtained:
Format in all cases: functional
Cryptococcus neoformans = assay: Antifungal activity against Cryptococcus neoformans ATCC 90113 assessed as reduction in microbial growth after 72 hrs by CLSI based method
Candida albicans = assay: Antifungal activity against Candida albicans ATCC 90028 assessed as reduction in microbial growth after 18 to 24 hrs by CLSI based method; conditions: time hrs 18-24
Nakaseomyces glabratus = assay: Antifungal activity against Candida glabrata ATCC 90030 assessed as reduction in microbial growth after 18 to 24 hrs by CLSI based method; conditions: time hrs 18-24
Aspergillus fumigatus = assay: Antifungal activity against Aspergillus fumigatus ATCC 204305 assessed as reduction in microbial growth after 72 hrs by CLSI based method

Row | MIC (Candida albicans) [µg/mL] | MIC (Nakaseomyces glabratus) [µg/mL] | Compound | Activity (Cryptococcus neoformans) | Activity (Candida albicans) | Activity (Nakaseomyces glabratus) | Activity (Aspergillus fumigatus) | MIC (Cryptococcus neoformans) [µg/mL] | MIC (Aspergillus fumigatus) [µg/mL]
1 | – | – | C[N+](C)(C)CCOP(=O)([O-])OCCCCCCCCCCCCCCCCCCCCCOP(=O)([O-])OCC[N+](C)(C)C | inactive | inactive | inactive | inactive | – | –
2 | – | – | C[C@@H]1[C@H](O)[C@@H](C)/C=C/C=C/C=C/C=C/C=C/C=C/C=C/[C@H](O[C@@H]2O[C@H](C)[C@@H](O)[C@H](N)[C@@H]2O)C[C@@H]2O[C@](O)(C[C@@H](O)C[C@@H](O)[C@H](O)CC[C@@H](O)C[C@@H](O)CC(=O)O[C@H]1C)C[C@H](O)[C@H]2C(=O)O [AMPHOTERICIN B] | – | – | – | – | 0.63 | 2.5
3 | 10 | 5 | C[N+](C)(C)CCOP(=O)([O-])OCCCCCCCCCCCCCCCCCCCCCCOP(=O)([O-])OCC[N+](C)(C)C | – | – | – | – | 0.63 | 1.25
4 | – | – | C[N+](C)(C)CCOP(=O)([O-])OCCCCCCCCCCCCCCCCCCCCCCCCOP(=O)([O-])OCC[N+](C)(C)C | inactive | inactive | inactive | inactive | – | –
5 | – | – | C[N+](C)(C)CCOP(=O)([O-])OCCCCCCCCCCCCCCCCCCCCCCCOP(=O)([O-])OCC[N+](C)(C)C | inactive | inactive | inactive | inactive | – | –
